Experiment in all cases: relative viability (nuclei count vs DMSO), 5 days (fraction); higher = more cells survive
Compound in the test “CUDC-101 + Palbociclib”: C#Cc1cccc(Nc2ncnc3cc(OC)c(OCCCCCCC(=O)NO)cc23)c1 [CUDC-101] + CC(=O)c1c(C)c2cnc(Nc3ccc(N4CCNCC4)cn3)nc2n(C2CCCC2)c1=O [Palbociclib] (partner 0.5 µM)
Summed up:
(§1)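 Cells from lung cancer lines were seeded into 1536-well plates and, one day later, dosed by pin tool. Treatments were either a single drug or a fixed dose of an anchor drug with five library-drug doses (not always all listed) in √10 steps. After 5 days, nuclei were stained in a one-step fixation (final 0.05% Triton X-100, 1% formaldehyde, 1 ug/ml Hoechst) and counted on 4× images, and relative viability is the treated-to-vehicle nuclei ratio, as the median of duplicate plates.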

Compound in the test “CUDC-101 + Phenformin”: C#Cc1cccc(Nc2ncnc3cc(OC)c(OCCCCCCC(=O)NO)cc23)c1 [CUDC-101] + N=C(N)NC(=N)NCCc1ccccc1 [Phenformin] (partner 250 µM)
The gist of the method:
as §1

Compound in the test “NVP-TAE684 + Tozasertib”: COc1cc(N2CCC(N3CCN(C)CC3)CC2)ccc1Nc1ncc(Cl)c(Nc2ccccc2S(=O)(=O)C(C)C)n1 [NVP-TAE684] + Cc1cc(Nc2cc(N3CCN(C)CC3)nc(Sc3ccc(NC(=O)C4CC4)cc3)n2)n[nH]1 [Tozasertib] (partner 0.1 µM)
Summed up: as §1

Compound in the test “NVP-TAE684 + Olaparib”: COc1cc(N2CCC(N3CCN(C)CC3)CC2)ccc1Nc1ncc(Cl)c(Nc2ccccc2S(=O)(=O)C(C)C)n1 [NVP-TAE684] + O=C(c1cc(Cc2n[nH]c(=O)c3ccccc23)ccc1F)N1CCN(C(=O)C2CC2)CC1 [Olaparib] (partner 8 µM)
The gist of the method: as §1

In the case of NCI-H2405, the relative viability with CUDC-101 + Palbociclib (first compound 0.01 µM) came to 0.523; with CUDC-101 + Palbociclib (first compound 0.03162 µM), 0.513; with CUDC-101 + Palbociclib (first compound 0.1 µM) it was 0.585; with CUDC-101 + Palbociclib (first compound 0.3162 µM), 0.584; with CUDC-101 + Palbociclib (first compound 1 µM), 0.506; with CUDC-101 + Phenformin (first compound 0.01 µM), 0.392. In addition, the relative viability was 0.37 in the test with CUDC-101 + Phenformin (first compound 0.03162 µM); 0.442 in the test with CUDC-101 + Phenformin (first compound 0.1 µM); 0.397 in the test with CUDC-101 + Phenformin (first compound 0.3162 µM); 0.352 with CUDC-101 + Phenformin (first compound 1 µM); 0.742 with NVP-TAE684 + Tozasertib (first compound 0.2 µM); 0.664 with NVP-TAE684 + Tozasertib (first compound 0.6325 µM). Further, the relative viability in the test with NVP-TAE684 + Tozasertib (first compound 2 µM) came to 0.35; with NVP-TAE684 + Olaparib (first compound 0.2 µM) it was 0.923; with NVP-TAE684 + Olaparib (first compound 0.6325 µM), 0.825; in the test with NVP-TAE684 + Olaparib (first compound 2 µM) it was 0.481.

For the cell line NCI-H3122, the relative viability with CUDC-101 + Palbociclib (first compound 0.01 µM) was 0.206; with CUDC-101 + Palbociclib (first compound 0.03162 µM), 0.214; with CUDC-101 + Palbociclib (first compound 0.1 µM) it was 0.187; with CUDC-101 + Palbociclib (first compound 0.3162 µM), 0.177; with CUDC-101 + Palbociclib (first compound 1 µM) it was 0.175; with CUDC-101 + Phenformin (first compound 0.01 µM) it was 0.382. Further, the relative viability with CUDC-101 + Phenformin (first compound 0.03162 µM) was 0.361; with CUDC-101 + Phenformin (first compound 0.1 µM), 0.389; with CUDC-101 + Phenformin (first compound 0.3162 µM), 0.356; in the test with CUDC-101 + Phenformin (first compound 1 µM), 0.338; with NVP-TAE684 + Tozasertib (first compound 0.2 µM) it was 0.156; in the test with NVP-TAE684 + Tozasertib (first compound 0.6325 µM), 0.091. Moreover, the relative viability came out at 0.118 with NVP-TAE684 + Tozasertib (first compound 2 µM), 0.342 with NVP-TAE684 + Olaparib (first compound 0.2 µM), 0.225 with NVP-TAE684 + Olaparib (first compound 0.6325 µM) and 0.111 in the test with NVP-TAE684 + Olaparib (first compound 2 µM).

In the case of PC-3 [JPC-3], the relative viability in the test with CUDC-101 + Palbociclib (first compound 0.01 µM) amounted to 0.465; with CUDC-101 + Palbociclib (first compound 0.03162 µM) it was 0.574; with CUDC-101 + Palbociclib (first compound 0.1 µM), 0.493; with CUDC-101 + Palbociclib (first compound 0.3162 µM), 0.527; with CUDC-101 + Palbociclib (first compound 1 µM), 0.481; in the test with CUDC-101 + Phenformin (first compound 0.01 µM), 0.484. The relative viability amounted to 0.486 with CUDC-101 + Phenformin (first compound 0.03162 µM); 0.362 with CUDC-101 + Phenformin (first compound 0.1 µM); 0.402 in the test with CUDC-101 + Phenformin (first compound 0.3162 µM); 0.351 in the test with CUDC-101 + Phenformin (first compound 1 µM); 0.926 in the test with NVP-TAE684 + Tozasertib (first compound 0.2 µM); 0.86 with NVP-TAE684 + Tozasertib (first compound 0.6325 µM). Besides, the relative viability with NVP-TAE684 + Tozasertib (first compound 2 µM) turned out to be 0.584; with NVP-TAE684 + Olaparib (first compound 0.2 µM), 1.32; with NVP-TAE684 + Olaparib (first compound 0.6325 µM), 1.02.

For the cell line PC-14, the relative viability with CUDC-101 + Palbociclib (first compound 0.01 µM) was 0.629; with CUDC-101 + Palbociclib (first compound 0.03162 µM), 0.425; with CUDC-101 + Palbociclib (first compound 0.1 µM), 0.338; with CUDC-101 + Palbociclib (first compound 0.3162 µM) it was 0.0958; in the test with CUDC-101 + Palbociclib (first compound 1 µM), 0.0539; with CUDC-101 + Phenformin (first compound 0.01 µM) it was 0.854. Also, the relative viability worked out at 0.476 with CUDC-101 + Phenformin (first compound 0.03162 µM); 0.22 with CUDC-101 + Phenformin (first compound 0.1 µM); 0.193 with CUDC-101 + Phenformin (first compound 0.3162 µM); 0.0975 with CUDC-101 + Phenformin (first compound 1 µM); 0.627 with NVP-TAE684 + Tozasertib (first compound 0.2 µM); 0.531 with NVP-TAE684 + Tozasertib (first compound 0.6325 µM). Further, the relative viability in the test with NVP-TAE684 + Tozasertib (first compound 2 µM) was 0.461; in the test with NVP-TAE684 + Olaparib (first compound 0.2 µM), 0.237; with NVP-TAE684 + Olaparib (first compound 0.6325 µM), 0.255; in the test with NVP-TAE684 + Olaparib (first compound 2 µM), 0.0711.

RERF-LC-KJ: the relative viability with CUDC-101 + Palbociclib (first compound 0.01 µM) was 1.15; in the test with CUDC-101 + Palbociclib (first compound 0.03162 µM), 1.16; with CUDC-101 + Palbociclib (first compound 0.1 µM), 1.01; with CUDC-101 + Palbociclib (first compound 0.3162 µM), 0.844; with CUDC-101 + Palbociclib (first compound 1 µM), 0.813; with CUDC-101 + Phenformin (first compound 0.01 µM), 0.419. Moreover, the relative viability with CUDC-101 + Phenformin (first compound 0.03162 µM) was determined as 0.441; in the test with CUDC-101 + Phenformin (first compound 0.1 µM) it was 0.418; with CUDC-101 + Phenformin (first compound 0.3162 µM) it was 0.387; with CUDC-101 + Phenformin (first compound 1 µM), 0.387; with NVP-TAE684 + Tozasertib (first compound 0.2 µM) it was 0.469; with NVP-TAE684 + Tozasertib (first compound 0.6325 µM), 0.488. The relative viability turned out to be 0.268 with NVP-TAE684 + Tozasertib (first compound 2 µM), 1.1 with NVP-TAE684 + Olaparib (first compound 0.2 µM), 0.758 with NVP-TAE684 + Olaparib (first compound 0.6325 µM) and 0.547 in the test with NVP-TAE684 + Olaparib (first compound 2 µM).

With SK-LU-1, the relative viability with CUDC-101 + Palbociclib (first compound 0.01 µM) is 0.371; with CUDC-101 + Palbociclib (first compound 0.03162 µM), 0.354; in the test with CUDC-101 + Palbociclib (first compound 0.1 µM) it was 0.407; with CUDC-101 + Palbociclib (first compound 0.3162 µM), 0.455; with CUDC-101 + Palbociclib (first compound 1 µM) it was 0.311; in the test with CUDC-101 + Phenformin (first compound 0.01 µM) it was 0.497. Also, the relative viability with CUDC-101 + Phenformin (first compound 0.03162 µM) was 0.441; in the test with CUDC-101 + Phenformin (first compound 0.1 µM) it was 0.576; with CUDC-101 + Phenformin (first compound 0.3162 µM), 0.593; with CUDC-101 + Phenformin (first compound 1 µM), 0.493; in the test with NVP-TAE684 + Tozasertib (first compound 0.2 µM) it was 0.333; with NVP-TAE684 + Tozasertib (first compound 0.6325 µM), 0.305. The relative viability worked out at 0.216 with NVP-TAE684 + Tozasertib (first compound 2 µM), 0.483 in the test with NVP-TAE684 + Olaparib (first compound 0.2 µM), 0.425 with NVP-TAE684 + Olaparib (first compound 0.6325 µM) and 0.352 in the test with NVP-TAE684 + Olaparib (first compound 2 µM).

SK-MES-1: the relative viability with CUDC-101 + Palbociclib (first compound 0.01 µM) stood at 0.301; in the test with CUDC-101 + Palbociclib (first compound 0.03162 µM) it was 0.33; with CUDC-101 + Palbociclib (first compound 0.1 µM), 0.341; in the test with CUDC-101 + Palbociclib (first compound 0.3162 µM), 0.305; in the test with CUDC-101 + Palbociclib (first compound 1 µM) it was 0.316; with CUDC-101 + Phenformin (first compound 0.01 µM), 0.705. Further, the relative viability in the test with CUDC-101 + Phenformin (first compound 0.03162 µM) came out at 0.679; with CUDC-101 + Phenformin (first compound 0.1 µM), 0.705; with CUDC-101 + Phenformin (first compound 0.3162 µM), 0.606; with CUDC-101 + Phenformin (first compound 1 µM), 0.57; with NVP-TAE684 + Tozasertib (first compound 0.2 µM), 0.958; with NVP-TAE684 + Tozasertib (first compound 0.6325 µM) it was 0.892. In addition, the relative viability was determined as 0.48 with NVP-TAE684 + Tozasertib (first compound 2 µM), 0.794 with NVP-TAE684 + Olaparib (first compound 0.2 µM), 0.668 with NVP-TAE684 + Olaparib (first compound 0.6325 µM) and 0.405 in the test with NVP-TAE684 + Olaparib (first compound 2 µM).

As for SW 900, the relative viability came to 0.508 with CUDC-101 + Palbociclib (first compound 0.01 µM); 0.449 with CUDC-101 + Palbociclib (first compound 0.03162 µM); 0.514 in the test with CUDC-101 + Palbociclib (first compound 0.1 µM); 0.5 with CUDC-101 + Palbociclib (first compound 0.3162 µM); 0.362 in the test with CUDC-101 + Palbociclib (first compound 1 µM); 0.666 in the test with CUDC-101 + Phenformin (first compound 0.01 µM). Besides, the relative viability in the test with CUDC-101 + Phenformin (first compound 0.03162 µM) is 0.538; with CUDC-101 + Phenformin (first compound 0.1 µM) it was 0.687; with CUDC-101 + Phenformin (first compound 0.3162 µM), 0.499; in the test with CUDC-101 + Phenformin (first compound 1 µM), 0.643; in the test with NVP-TAE684 + Tozasertib (first compound 0.2 µM), 0.576; with NVP-TAE684 + Tozasertib (first compound 0.6325 µM) it was 0.531. For the same cell line, the relative viability was 0.322 with NVP-TAE684 + Tozasertib (first compound 2 µM), 0.885 in the test with NVP-TAE684 + Olaparib (first compound 0.2 µM), 0.953 in the test with NVP-TAE684 + Olaparib (first compound 0.6325 µM) and 0.68 in the test with NVP-TAE684 + Olaparib (first compound 2 µM).

SW 1573: the relative viability in the test with CUDC-101 + Palbociclib (first compound 0.01 µM) turned out to be 0.376; in the test with CUDC-101 + Palbociclib (first compound 0.03162 µM), 0.346; with CUDC-101 + Palbociclib (first compound 0.1 µM), 0.441; with CUDC-101 + Palbociclib (first compound 0.3162 µM) it was 0.501; in the test with CUDC-101 + Palbociclib (first compound 1 µM) it was 0.315; in the test with CUDC-101 + Phenformin (first compound 0.01 µM), 0.407. Further, the relative viability with CUDC-101 + Phenformin (first compound 0.03162 µM) was 0.356; in the test with CUDC-101 + Phenformin (first compound 0.1 µM) it was 0.484; in the test with CUDC-101 + Phenformin (first compound 0.3162 µM) it was 0.371; with CUDC-101 + Phenformin (first compound 1 µM), 0.304; with NVP-TAE684 + Tozasertib (first compound 0.2 µM), 0.216; with NVP-TAE684 + Tozasertib (first compound 0.6325 µM) it was 0.16. Besides, the relative viability with NVP-TAE684 + Tozasertib (first compound 2 µM) is 0.139; with NVP-TAE684 + Olaparib (first compound 0.2 µM) it was 0.519; in the test with NVP-TAE684 + Olaparib (first compound 0.6325 µM), 0.401; with NVP-TAE684 + Olaparib (first compound 2 µM), 0.148.
